This note sets out measurements from patent US12133846B2, “Electrophilic androgen receptor (AR) antagonists for AR downregulation and ferroptosis induction in cancer cells” (priority 2019, dated 2024).

Molecules are shown by their SMILES.

Data set [1] relates to 22Rv1 cells. In words: MTT viability assay, 22Rv1 cells. It counts as cell-based. The following applies: 5 μM, 72 h. The text has this: Biological Characterization. ITC-ARi hybrid drugs effectively reduce the viability of PCa cells. By using an MTT assay, it was first examined if the newly synthesized hybrid drugs affect the viability of CRPC-relevant PCa cells. PCa VCaP cells naturally express abundant wild type FL AR as well as AR splice variants (e.g., AR-V7). These cells were, therefore, used as one of the cell culture models in this work to investigate the drug-caused viability loss and AR downregulation.
A general note: Tetrazolium dyes change colour on reduction, which living cells bring about.

For data set [2], the target named is T1, FL AR and AR-V7 (Homo sapiens, UniProt P10275).
T1 construct: Whole cell lysates were subjected to Western blotting and probed with the indicated antibodies; endogenous in cells; host or cells: VCaP
T1 sequence (P10275 1-644 isoform P10275-3): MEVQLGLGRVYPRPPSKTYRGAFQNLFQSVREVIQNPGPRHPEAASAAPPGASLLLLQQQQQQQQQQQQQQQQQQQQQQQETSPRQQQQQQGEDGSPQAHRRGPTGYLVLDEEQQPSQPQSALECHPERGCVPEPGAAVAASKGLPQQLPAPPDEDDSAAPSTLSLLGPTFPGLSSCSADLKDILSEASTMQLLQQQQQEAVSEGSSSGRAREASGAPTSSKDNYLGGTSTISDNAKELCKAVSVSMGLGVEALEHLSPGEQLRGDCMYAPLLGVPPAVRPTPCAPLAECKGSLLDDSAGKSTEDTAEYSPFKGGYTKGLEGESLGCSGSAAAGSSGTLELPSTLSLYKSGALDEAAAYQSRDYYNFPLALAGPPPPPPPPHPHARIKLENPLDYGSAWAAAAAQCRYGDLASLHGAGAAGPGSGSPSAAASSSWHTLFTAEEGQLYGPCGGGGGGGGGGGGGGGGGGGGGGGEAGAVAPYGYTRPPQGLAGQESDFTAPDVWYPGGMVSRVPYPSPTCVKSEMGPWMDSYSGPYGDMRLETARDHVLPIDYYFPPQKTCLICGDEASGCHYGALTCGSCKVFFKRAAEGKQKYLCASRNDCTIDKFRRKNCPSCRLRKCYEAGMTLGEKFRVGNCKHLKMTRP
In words: Western blotting of FL AR and AR-V7 in VCaP cells. The settings on record: full media, 16 h, 2-63, 12b 5 and 15 μM, Enz 10 μM. It counts as cell-based. The protocol:
(§1) Western Blotting. […] Proteins in cell lysates (40 μg) were separated using electrophoresis on SDS-PAGE and transferred onto PVDF (polyvinylidenedifluoride) membranes. Membranes were blocked in 5% fat-free milk followed by incubation with primary antibodies overnight at 4° C., and the secondary horseradish peroxidase-conjugated anti-rabbit or anti-mouse antibodies. The blots were developed in the Enhanced Chemiluminescence mixture and detected by ImageQuant™ LAS 4000 imaging system (GE). Density of protein bonds were calculated and analyzed by using imageJ software downloaded from the National Institute of Health website.
On the technique in general: In western blotting, separated proteins are transferred to a membrane and probed.

Data set [3] relates to acetylation of α-tubulin and histone H3 (markers for HDAC6 and nuclear HDAC inhibition). In words: Western blotting of acetylation markers in VCaP cells. It counts as cell-based. The following applies: 16 h, 2-63 and 12b 5 and 15 μM, SAHA 1 μM. As for the experimental part:
as §1

The test system of data set [4] is FL AR and AR-V7. In words: Cycloheximide chase of AR protein stability in VCaP cells. In kind it is cell-based. The settings on record: cycloheximide 25 μg/mL, 2-63 10 μM, 2-16 h. The protocol: (§2) FL AR is a client protein of Hsp90, and AR-V7 might be chaperoned by Hsps other than Hsp90 (Moses, et al., Cancer Res. 2018, 78, 4022-4035). Because Hsp70 upregulation is an indicator of heat shock protein disruption (Kitson, et al., Nat. Chem. 2013, 5, 307-314) that causes client protein degradation, it was assessed whether 2-63 could change the protein stability of AR and AR-V7. […] 2-63-induced AR/AR-V7 downregulation was partially rescued by the proteasome inhibitor MG-132 (data not shown). This supports the involvement of proteasome degradation in AR reduction. Besides the posttranslational mechanisms, AR downregulation could also be caused by suppressing transcription factors (TFs) that drive the transcription of the AR gene. Sp1 and c-Myc were selected as representatives that could be affected by 2-63. Multiple Sp1 binding sites are located near the transcriptional initiation region of the AR gene.
(§3) Western Blotting. […] The protein concentration of supernatants was determined using the Pierce BCA Protein Assay Kit (Thermo Fisher, Cat #23225). […] The blots were developed in the Enhanced Chemiluminescence mixture and detected by ImageQuant™ LAS 4000 imaging system (GE). Density of protein bonds were calculated and analyzed by using imageJ software downloaded from the National Institute of Health website.

A further data set relates to Sp1 and c-Myc. In words: Western blotting of transcription factors in VCaP cells. In kind it is cell-based. The following applies: 5.0 and 10 μM, 24 h. The protocol:
as §2, §3

The test system of data set [5] is 22Rv1 cells. In words: Colony formation assay, 22Rv1 cells. In kind it is cell-based. The settings on record: 2-63 1 μM plus BSO 5 μM, 24 h, then drug-free medium 11 days. As for the experimental part:
Colony formation assay. Cells (22Rv1 or C4-2) were seeded in six-well plates (1,000/well) and cultured overnight. Cells were then treated with 2-63 (1 μM in 22Rv1; 2.5 μM in C4-2), BSO (5 μM) alone or in combination for 24 h. Cells were washed and cultured in a drug-free medium (22Rv1, 11 days; C4-2, 8 days). On the last day, the medium was removed, cells were washed with PBS and fixed with methanol. The colonies were stained with crystal violet solution for 3 h at room temperature and air-dried.

The test system of the next data set is C4-2 cells. The following applies: 5 μM, DHT 1 nM, charcoal stripped FBS, 6 days.
For the next data set, the system named is VCaP cells. In words: BSO pretreatment plus drug, MTT viability, VCaP cells.

Protocol for C4-2 cells: The medium and drug were refreshed every two days.
The anti-PCa potential of 2-63 was further characterized by assessing its inhibitory effects on DHT-stimulated C4-2 cell growth. […] C4-2 cells were cultured in charcoal-stripped, steroid-free medium and cells were stimulated with androgen.

On to `CC(=O)N[C@H](CSC(=S)NCCCCCCc1ccc(N2C(=S)N(c3ccc(C#N)c(C(F)(F)F)c3)C(=O)C2(C)C)cn1)C(=O)O` [2-63, N-acetyl-S-((6-(5-(3-(4-cyano-3-(trifluoromethyl)phenyl)-5,5-dimethyl-4-oxo-2-thioxoimidazolidin-1-yl)pyridine-2-yl)hexyl)carbamothioyl)-D-cysteine], for which the “relative potency in viability reduction, 22Rv1 cells” value in the data set with 22Rv1 cells [1] was determined as 12b>2-63>PEITC-NAC. Also, the AR-V7 expression result at FL AR and AR-V7 [2] is recorded as “dose-dependently decreased”. Moreover, the “histone H3 acetylation” value in data set [3] is recorded as “did not show significant effects”. The α-tubulin acetylation entry in data set [3] (SFN 15 μM) was “did not show significant effects”. Besides, the “stability of FL AR and AR-V7 proteins” value with FL AR and AR-V7 [4] is given as “significantly reduced”. For the same compound, in the data set on Sp1 and c-Myc, the “Sp1 and c-Myc protein level” value is listed as “dose-dependently reduced”. The “colony formation of 22Rv1 cells” value in the data set with 22Rv1 cells [5] was “very efficiently suppressed colony formation”. Besides, the “viability reduction of DHT-stimulated C4-2 cells” value in the data set on C4-2 cells is given as 70%. The “combinatorial effect with BSO (interaction index), VCaP” value in the data set on VCaP cells (BSO 2.5-10 μM 16 h pretreatment, then 2-63 1-10 μM 24 h, synergism = index <0.8) is listed as “synergistically reduced viability”. Further, the “viability suppression, VCaP cells” value in the data set with VCaP cells (BSO plus 2-63 reduced to 2.5 μM, 24 h) was found to be 60%.
